For orientation: ED50 means the dose that gives a 50% effect, or the effect in half of the subjects.

Experiment [1] relates to NMDA-induced death. Kind of experiment: NMDA test (25 mg/kg i.v.), prevention of NMDA-induced death (neuroprotective efficacy). The note with it: Mus musculus, po, NMDA 25 mg/kg i.v.; for ED50: 1 h, dose protecting 50% of animals against NMDA-induced death one hour after application; for responders at 25 mg/kg: 25 mg/kg p.o. 1 h before test, read-out: Protective action (percentage of surviving animals). The class given is in vivo, male NMRI mice.

The subject of experiment [2] is NMDA-induced tonic convulsions. Kind of experiment: NMDA test (40 mg/kg i.v.), protection against tonic convulsions (antiepileptic efficacy). The class given is in vivo, male NMRI mice. Particulars: Mus musculus, po, NMDA 40 mg/kg i.v.; for responders at 5 mg/kg: 5 mg/kg p.o. 1 h before test. As to the method:
In order to determine the neuroprotective and anticonvulsive activity of the compounds in accordance with the invention of the general formula I, two slightly different methods were employed as follows: […]
1. In order to determine the neuroprotective efficacy NMDA at a rate of 25 mg/kg/10 ml was administered intravenously to male NMRI mice with a body weight of 20 to 25 g. As a consequence of this application the animals suffer clonic and partly tonic convulsions, which lead to death. As a criterion for the efficacy of the investigated compounds prevention of death is used.
2. In order to ascertain the antiepileptic efficacy the same method was utilized with an NMDA dosage of 40 mg/kg/10 ml i.v. This higher NMDA dosage led in the case of all animals to the occurrence of tonic convulsions.
All animals used in the investigations had free access to food and water prior to the experiments. The test and reference substances were all administered as a suspension in 0.2% agar or water, partly by the intermediary of solution promoters such as for instance PEG-400, perorally using an esophageal probe. Control animals received the same volumes of the solvent with optional solution promoters. One hour after the application of the substance NMDA was administered intravenously and the animals observed for the occurrence of convulsions.
In table 2 the results of the tests (NMDA 40 mg i.v.) performed in accordance with method 2 are compiled with dosages of 5-25 mg of the compounds in accordance with the invention per kg of body weight in comparison with known anticonvulsants and antiepileptics. As a percentage efficacy the percentage of animals is used which in the test were protected against the occurrence of tonic convulsions.
The determination of the ED50 values was performed in accordance with the method described in Lichtfield and Wilcoxon, J. Pharmacol. exp. Therapeut. 96, 99 (1949) in each case with 4 to 5 groups of 10 animals per dosage rate.

Experiment [3] concerns ovalbumin-induced anaphylactic paw edema. Kind of experiment: Passive rat paw anaphylaxy (inhibition of edema volume; antiallergic and anti-inflammatory). The experiment is classed as in vivo, male Sprague-Dawley rats. The note with it: Rattus norvegicus, po; 25 mg/kg p.o. 1 h before test; read-out: Protective action (percentage inhibition of edema volume). The method, then:
The determination of the antiallergic and anti-inflammatory properties of the compounds in accordance with the invention was using a passive rat paw anaphylaxy model.
Male Sprague-Dawley rats were utilized for all tests. The animals were kept under standardized environmental conditions with free access to food and water. For sensitization to the antigen 100 μl of a mouse antiserum to ovalbumin was injected sublplantarly into the left rear paw. […] The opposite paw was for control injected subplantarly only with 100 μl of the solvent (sterile physiological NaCl solution). Overnight the investigated animals were deprived of food but had water ad lib.
Per group in all tests between 6 and 8 animals were used. One hour later the anaphylactic reaction was caused by the intravenous injection of 10 mg/10 ml/kg ovalbumin in physiological NaCl solution. […] The edema volume was calculated from the difference between the values of the two paws. The antiallergic action is in this case expressed as a percentage inhibition of the edema volume of the animals in the test group as compared with control groups undergoing parallel investigation. […] The determination of the ED50 values was performed by linear regression after log transformation of the administered doses, at least three dosage rates being employed.

The mark [4] stands for this setting: read-out: Protective action (percentage of animals protected against tonic convulsions).

Take `CCOc1cc2ccc(=O)oc2cc1OCCCN1CCN(c2ccccc2)CC1` [Example 4, 6-ethoxy-7-[3-(4-phenyl-1-piperazinyl)propoxy]-2H-1-benzopyran-2-one]: in experiment [1], it took a dose of 1.7 mg/kg to reach the 50% effect level (ED50) and the responders at 25 mg/kg came out at 100%. In addition, in experiment [2] (setting [4]), the responders at 5 mg/kg came out at 62.5%. For the same molecule, the inhibition in vivo at 25 mg/kg in experiment [3] was found to be 79%.

`COc1cc2ccc(=O)oc2cc1OCCCN1CCC(c2ccccc2)CC1` [Example 10, 6-methoxy-7-[3-(4-phenyl-1-piperidinyl)propoxy]-2H-1-benzopyran-2-one]: in experiment [1], the ED50 stood at 23 mg/kg and the responders at 25 mg/kg was 75%. For the same molecule, the responders at 5 mg/kg in experiment [2] (setting [4]) is 25%. Also, the inhibition in vivo at 25 mg/kg in experiment [3] was found to be 22%.

On to `COc1cc2oc(=O)c3c(c2cc1OCCCN1CCC(c2ccccc2)CC1)CCCC3` [Example 43, 7,8,9,10-tetrahydro-3-methoxy-2-[3-(4-phenyl-1-piperidinyl)propoxy]-6H-dibenzo[b,d]pyran-6-one], for which, in experiment [1], the 50% effect level (ED50) was put at a dose of 5.5 mg/kg and the responders at 25 mg/kg was found to be 100%. Moreover, in experiment [2] (setting [4]), the responders at 5 mg/kg is 37.5%. The inhibition in vivo at 25 mg/kg in experiment [3] is 19%.

In the case of `COc1cc2oc(=O)c3c(c2cc1OCCCN1CCC(c2ccccc2)CC1)CCC3` [Example 49, 2,3-dihydro-7-methoxy-8-[3-(4-phenyl-1-piperidinyl)propoxy]cyclopenta[c][1]benzopyran-4(1H)-one], in experiment [1], the ED50 was 6.8 mg/kg and the responders at 25 mg/kg was found to be 75%. Further, the ED50 in experiment [2] (1 h, dose protecting 50% of animals against tonic convulsions one hour after application, read-out: ED50) stood at 4 mg/kg. The responders at 20 mg/kg in experiment [2] (20 mg/kg p.o. 1 h before test, read-out: Protective action (percentage of animals protected against tonic convulsions)) amounted to 87.5%. The inhibition in vivo at 25 mg/kg in experiment [3] worked out at 47%.

(Values after US5428038A, “Benzopyranones, a method for producing them and uses therefor” (Dr. Willmar Schwabe GmbH & Co., priority 1991, dated 1995).)
